Reference: ChEMBL document CHEMBL1128664, “FPL 64176: The effect of the chain length separating the two aryl groups on calcium agonist activity” (Bioorg Med Chem Lett, 1995)
Calls of active or inactive are those of the source. The rule behind the calls is not given here.

Tests used:
GH3 [1] = experiment: Concentration required for enhancing calcium influx into GH 3 cells was determined; format: functional, cell-based; conditions: Rattus norvegicus
GH3 [2] = experiment: Effect on K+ stimulated [Ca2+] influx in GH3 cells at 10e-5 concentration; format: functional, Rattus norvegicus
GH3 [3] = experiment: Effect on K+ stimulated [Ca2+] influx in GH3 cells at 10e-6 concentration; format: functional, Rattus norvegicus
GH3 [4] = experiment: Effect on K+ stimulated [Ca2+] influx in GH3 cells at 10e-7 concentration; format: functional, Rattus norvegicus
GH3 [5] = experiment: Effect on K+ stimulated [Ca2+] influx in GH3 cells at 10e-8 concentration; format: functional, Rattus norvegicus
GH3 [6] = experiment: Maximal stimulation of Ca 2+ uptake was determined; format: functional, Rattus norvegicus
GH3 [7] = experiment: Concentration required for 84% enhancing calcium influx intoGH 3 cells was determined; format: functional, cell-based; conditions: Rattus norvegicus
GH3 [8] = experiment: Maximal stimulation of Ca 2+ uptake was determined; no significant effect; format: functional, cell-based; conditions: Rattus norvegicus

Row | SMILES | EC50 (GH3 [1]) | EC50 (GH3 [7]) | Increase (GH3 [2]) | Increase (GH3 [3]) | Increase (GH3 [4]) | Increase (GH3 [5]) | Stimulation (GH3 [6]) | Stimulation (GH3 [8])
1 | COC(=O)c1c(C)[nH]c(C)c1C(=O)c1ccccc1CCCCc1ccccc1 | – | 10000 nM | 20% | 80% | 20% | 0% | – | inactive
2 | COC(=O)c1c(C)[nH]c(C)c1C(=O)c1ccccc1-c1ccccc1 | – | – | 0% | -8% | -8% | 0% | – | inactive
3 | COC(=O)c1c(C)[nH]c(C)c1C(=O)c1ccccc1CCCc1ccccc1 | 614 nM | – | 220% | 160% | 0% | -8% | 265% | –

The next lines start with results.

Row | EC50 (GH3 [1]) | EC50 (GH3 [7]) | SMILES | Increase (GH3 [2]) | Increase (GH3 [3]) | Increase (GH3 [4]) | Increase (GH3 [5]) | Stimulation (GH3 [6]) | Stimulation (GH3 [8])
4 | 140 nM | – | COC(=O)c1c(C)[nH]c(C)c1C(=O)c1ccccc1Cc1ccccc1 | 280% | 240% | 140% | 20% | 298% | –
5 | 207 nM | – | COC(=O)c1c(C)[nH]c(C)c1C(=O)c1ccccc1CCc1ccccc1 | 350% | 340% | 120% | 0% | 420% | –
